# US6218369A, “Pharmaceutical compositions containing flavanolignanes and methods for using same as an antiproliferative” (Indena S.p.A., priority 1995, dated 2001)
# Where two headings read alike, the source gives them in different places.
# What was measured:
# A2780 WT cell line = assay: synergistic antiproliferative effect of the CIS-silybin combination (isobolic method); type: cell-based, human
# Method: (§1) The determination of the binding to the estrogen receptor has been carried out on cells of ovary tumor or of other organ tumors, cultured in monolayers using as medium the Dulbecco Modified Medium added with calf serum and with 200 unities/ml of penicillin. The cells used for the tests have been trypsinated every week and placed on a plate at a […] density and incubated at 37° C. under air atmosphere containing 5% CO2 and humidity. […] After 24 hours the medium is substituted with fresh medium and the flavanolignanes dissolved in absolute ethanol are added. The controls are treated in the same experimental conditions only with the vehicle in the absence of the active ingredient. The treatment described above is repeated at 24 hour intervals during the 72 hours of the test time. The inhibition of the cell proliferation is evaluated by direct count of the cells, comparing the growth of the controls versus that of the treated samples.
# (§2) The inhibition on cell proliferation is evaluated by direct count of the cells, comparing the growth of controls versus that of the treated ones.
# As reported in Table III, when silybin is used in combination with CIS, a synergistic inhibition effect on the growth is observed, compared with corresponding doses of the medicaments used alone.
# (§3) In order to verify wether such an effect of a combination of silybin with adriamycin or cisplatin is due to a synergistic or an additive action, the data have been analyzed with the isobolic method by Berenbau (Adv. Cancer Res., 25, 269, 1981).
# A2780 WT cells [1] = assay: antiproliferative effect on A2780 WT ovary carcinoma cells (direct cell count); type: cell-based, human; conditions: for IC50: Homo sapiens
# Method: as §1, with “The controls are treated in the same experimental conditions only with the vehicle in the absence of the active ingredient.” left out, “samples. The inhibition on cell proliferation is evaluated by direct count of the cells, comparing the growth of controls versus that of the treated ones. […] The results are the average of two experiments carried out in triplicated.” for “samples.”
# [2] = system: tumors implanted in the nude athymic mouse; assay: inhibition of growth of tumors implanted in nude athymic mouse; conditions: test not specified (follows in vivo mouse and man results)
# Method: Moreover, the above flavanolignanes were evidenced to inhibit in vivo the cell proliferation, by measuring the size of tumors implanted in the nude athymic mouse according to the conventional conditions of literature. The treatment of the animals at doses from 1 to 100 mg/Kg evidenced a marked regression of the studied tumors until their disappearance in a high percentage of individuals.
# In the in vitro tests flavanolignanes have been used as such, whereas in in vivo tests the complexes thereof with phospholipids, described in EP-A-0209038, have been used.
# [3] = target: estrogen receptors of type II; conditions: read-out: dissociation affinity constant KD; cited from earlier work
# A2780 CIS cells = assay: antiproliferative effect on A2780 CIS (CIS resistant) ovary carcinoma cells; type: cell-based; conditions: Homo sapiens, A2780cis, ovary ca CIS resistant, exposure 72 h
# Method: as §1, §2
# [4] = system: different stabilized cell lines, including MCF-7 ADRr, A2780 CIS; assay: antiproliferative effect on different stabilized cell lines (overall statement); type: cell-based, human
# Text: In order to verify the antiproliferative effect of flavanolignanes, the growth curves of different stabilized cell lines deriving from various human tumors have been examined in the presence of the compounds and their capability to interact with the Type II EBS in ovary carcinoma samples has been evaluated.
# as §1, §2
# OVCA-433 cells = assay: antiproliferative effect on OVCA-433 ovary carcinoma cells; type: cell-based; conditions: Homo sapiens, OVCA433; OVCA-433, ovary ca, exposure 72 h
# Method: as §1, §2
# MCF-7 ADRr cells = assay: antiproliferative effect on MCF-7 ADRr (ADR resistant) breast carcinoma cells; type: cell-based; conditions: Homo sapiens, MCF7, breast ca ADR resistant, exposure 72 h
# Method: as §1, §2
# MCF-7 ADRr line = assay: synergistic antiproliferative effect of a combination of ADR and silybin (isobolic method); type: cell-based, human
# Method: as §1, with “The controls are treated in the same experimental conditions only with the vehicle in the absence of the active ingredient.” left out
# as §2, §3
# A2780 WT cells [5] = assay: cytofluorimetric analysis of cell cycle phase distribution; type: cell-based, human
# Method: *A2780 WT cells were cultured for 2 days with or without 10 μM silybin.
# [6] = system: human tumor primary cultures; assay: antiproliferative activity on human tumor primary cultures; type: cell-based
# Text: A plurality of the tested flavanolignanes have a similar behaviour. In Table V, the data relating to silybin, silidianin, silymarin and dehydrosilybin are reported. The diastereomeric forms of silybin and isosilybin are as well active in these tests.
# human leukemia cells = conditions: cited from earlier work
# other cell lines = conditions: cited from earlier work
# [7] = isoeffective with CIS 0.1 μg/ml + silybin 0.1 μM (67% control)
# [8] = isoeffective with CIS 0.1 μg/ml + silybin 1 μM (54% control)
# [9] = isoeffective with CIS 0.25 μg/ml + silybin 0.1 μM (58% control)
# [10] = isoeffective with CIS 0.25 μg/ml + silybin 1 μM (35% control)
# [11] = isoeffective with CIS 0.5 μg/ml + silybin 0.1 μM (37% control)
# [12] = isoeffective with CIS 0.5 μg/ml + silybin 1 μM (25% control)
# [13] = isoeffective with CIS 1 μg/ml + silybin 0.1 μM (18% control)
# [14] = isoeffective with CIS 1 μg/ml + silybin 1 μM (12% control)
# [15] = A2780 WT, ovary ca, exposure 72 h, read-out: IC50
# [16] = isoeffective with ADR 0.1 μg/ml + silybin 0.1 μM (80% of control)
# [17] = isoeffective with ADR 0.5 μg/ml + silybin 0.1 μM (76% of control)
# [18] = isoeffective with ADR 1 μg/ml + silybin 0.1 μM (69% of control)
# [19] = isoeffective with ADR 2.5 μg/ml + silybin 0.1 μM (62% of control)
# [20] = isoeffective with ADR 5 μg/ml + silybin 0.1 μM (47% of control)
# [21] = isoeffective with ADR 10 μg/ml + silybin 0.1 μM (39% of control)
structure (smiles),measurement,setting,value
"N.N.[Cl][Pt][Cl] [CIS, cisplatin, reference compound]",CIS (isoeffective dose alone),A2780 WT cell line; [7],0.23 µg/mL
same,CIS (isoeffective dose alone),A2780 WT cell line; [8],0.34 µg/mL
same,CIS (isoeffective dose alone),A2780 WT cell line; [9],0.31 µg/mL
same,CIS (isoeffective dose alone),A2780 WT cell line; [10],0.56 µg/mL
same,CIS (isoeffective dose alone),A2780 WT cell line; [11],0.54 µg/mL
same,CIS (isoeffective dose alone),A2780 WT cell line; [12],0.82 µg/mL
same,CIS (isoeffective dose alone),A2780 WT cell line; [13],> 1 µg/mL
same,CIS (isoeffective dose alone),A2780 WT cell line; [14],> 1 µg/mL
COc1cc(C2C3C=C([C@H]4Oc5cc(O)cc(O)c5C(=O)[C@@H]4O)C4C2COC4(O)C3=O)ccc1O (stereo partly shown) [silidianin],IC50,A2780 WT cells [1]; [15],12 µM
same,activity,[2],particularly marked activity
C[C@]12CC[C@@H]3c4ccc(O)cc4CC[C@H]3[C@@H]1CC[C@@H]2O [estradiol],Kd,[3],0.01 to 0.02 µM
COc1cc(C2Oc3cc(C4Oc5cc(O)cc(O)c5C(=O)C4O)ccc3OC2CO)ccc1O (stereo not shown) [silybin],IC50,A2780 CIS cells,14 µM
same,IC50,A2780 WT cells [1]; [15],12 µM
same,antiproliferative effect,"[4]; 0.01 μM to 20 μM, FIG. 1 and Table I",dose-dependent antiproliferative effect
same,IC50,"[4]; Homo sapiens, different cell lines, silybin 0.01 μM to 20 μM, read-out: IC50 (range over cell lines)",4.8 to 24 µM
same,IC50,OVCA-433 cells,4.8 µM
same,IC50,MCF-7 ADRr cells,24 µM
same,Silybin (isoeffective dose alone),MCF-7 ADRr line; [16],0.1 µM
same,Silybin (isoeffective dose alone),MCF-7 ADRr line; [17],0.36 µM
same,Silybin (isoeffective dose alone),MCF-7 ADRr line; [18],2.2 µM
same,Silybin (isoeffective dose alone),MCF-7 ADRr line; [19],7 µM
same,Silybin (isoeffective dose alone),MCF-7 ADRr line; [20],35 µM
same,Silybin (isoeffective dose alone),MCF-7 ADRr line; [21],> 50 µM
same,Silybin (isoeffective dose alone),A2780 WT cell line; [7],2.9 µM
same,Silybin (isoeffective dose alone),A2780 WT cell line; [8],8.2 µM
same,Silybin (isoeffective dose alone),A2780 WT cell line; [9],6.4 µM
same,Silybin (isoeffective dose alone),A2780 WT cell line; [10],> 50 µM
same,Silybin (isoeffective dose alone),A2780 WT cell line; [11],> 50 µM
same,Silybin (isoeffective dose alone),A2780 WT cell line; [12],> 50 µM
same,Silybin (isoeffective dose alone),A2780 WT cell line; [13],> 50 µM
same,Silybin (isoeffective dose alone),A2780 WT cell line; [14],> 50 µM
same,cells in phase G2/M,"A2780 WT cells [5]; 10 μM silybin, 2 days, control 10.3",8.6%
same,cells in phase S,"A2780 WT cells [5]; 10 μM silybin, 2 days, control 31",20.9%
same,cells in phase G0/G1,"A2780 WT cells [5]; 10 μM silybin, 2 days, control 58.7",70.5%
same,effect on percentage of phase G0/G1 cells,A2780 WT cells [5]; A2780 WT,mild increase
same,effect on percentage of phase S cells,A2780 WT cells [5]; A2780 WT,decrease in the percentage of phase S cells
same,antiproliferative activity,[6],antiproliferative activity
"COc1cccc2c1C(=O)c1c(O)c3c(c(O)c1C2=O)C[C@@](O)(C(=O)CO)C[C@@H]3O[C@H]1C[C@H](N)[C@H](O)[C@H](C)O1 [ADR, adriamycin, reference compound]",ADR (isoeffective dose alone),MCF-7 ADRr line; [16],0.6 μM/ml
same,ADR (isoeffective dose alone),MCF-7 ADRr line; [17],0.9 μM/ml
same,ADR (isoeffective dose alone),MCF-7 ADRr line; [18],2.5 μM/ml
same,ADR (isoeffective dose alone),MCF-7 ADRr line; [19],5.4 μM/ml
same,ADR (isoeffective dose alone),MCF-7 ADRr line; [20],> 10 μM/ml
same,ADR (isoeffective dose alone),MCF-7 ADRr line; [21],> 10 μM/ml
COc1cc(C2Oc3ccc(C4Oc5cc(O)cc(O)c5C(=O)C4O)cc3OC2CO)ccc1O (stereo not shown) [isosilybin],activity in these tests,"A2780 WT cells [1]; diastereomeric forms, growth tests of Table V",active
O=c1c(O)c(-c2ccc(O)c(O)c2)oc2cc(O)cc(O)c12 [quercetin],inhibiting activity on proliferation,human leukemia cells,some inhibiting activity
same,activity with the usual chemotherapeuticals,other cell lines,synergistic activity
same,inhibiting activity on proliferation,other cell lines; other cell lines,some inhibiting activity
COc1cc(C2Oc3cc(-c4oc5cc(O)cc(O)c5c(=O)c4O)ccc3OC2CO)ccc1O (stereo not shown) [dehydrosilybin],IC50,"A2780 WT cells [1]; A2780, 72 h",2.88 µM
same,activity,[2],particularly marked activity
